Assay results as given in ChEMBL document CHEMBL1201862, “PubChem BioAssay data set” (2004).
Activity calls are given as the source filed them.

Columns and labels:
[1] = target: T1, Luciferin 4-monooxygenase (Photinus pyralis, UniProt P08659); assay: Counter Screen for Luciferase-based Assay Positives. [Related pubchem assays: 620, 618, 411 ]
cells [2] = format: functional, cell-based
[3] = cytotoxicity in HPDE-C7 cells, cell-based, fluorescence, HTS (AID 430); format: functional; conditions: Homo sapiens
[4] = target: T1, Luciferin 4-monooxygenase; assay: firefly luciferase enzyme inhibitors, dose response, biochemical, luminescence (AID 1891)
[5] = Luminescence Cell-Based Dose Confirmation HTS to Identify Inhibitors of Platelet Dense Granule Release. [Related pubchem assays: 1663 (Primary HTS), 1678 (Summary of Project)]; format: functional
[6] = cytotoxicity in KRAS-transformed pancreatic duct cells, primary screen, cell-based, fluorescence, HTS (AID 431); format: functional; conditions: Homo sapiens;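 further: cell line used: HPDE-C7K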
cells [7] = format: functional, cell-based; remark: listed apart in the source
HT-1080 = assay: cytotoxicity in HT1080 fibrosarcoma cells, cell-based, fluorescence readout (AID 620); format: functional; conditions: Homo sapiens
[8] = target: T2, Sphingosine 1-phosphate receptor 4 (Homo sapiens, UniProt O95977); assay: Late stage fluorescence dose response cell-based screening assay for antagonists of the Sphingosine 1-Phosphate Receptor 4 (S1P4). [Related pubchem assays: 1524 (Confirmation screen (S1P4 antagonists).), 1510 (Primary screen (S1P4 antagonists).), 1853 (Summary AID (S1P4 antagonists).), 1692 (Dose response screen (S1P4 antagonists).)]; format: functional
[9] = target: T2, Sphingosine 1-phosphate receptor 4; assay: Fluorescence dose response cell-based high throughput screening assay for antagonists of the Sphingosine 1-Phosphate Receptor 4 (S1P4). [Related pubchem assays: 1524 (Confirmation in triplicates.), 1510 (Primary screen.)]; format: functional
[10] = target: Sphingosine 1-phosphate receptor 1 (Homo sapiens, UniProt P21453); format: functional;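 further: Tango beta-arrestin reporter U2OS cells stimulated with S1P near its EC80; inhibitor potency meaning antagonism of receptor activation by the natural agonist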
[11] = THP-1 cell cytotoxicity, dose response, cytotoxicity control for non-replicating M. tuberculosis project (AID 489025); format: functional
[12] = HepG2 cell cytotoxicity, dose response, cytotoxicity control for non-replicating M. tuberculosis project (AID 489018); format: functional; conditions: Mycobacterium tuberculosis
cells [13] = format: functional
CHO = assay: cytotoxicity in TLR9-MyD88 CHO cells, dose response, cytotoxicity control for TLR9-MyD88 binding inhibitor project, cell-based, luminescence (AID 588339); format: functional, hamster; conditions: Cricetulus griseus;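 further: CHO cells stably coexpressing TLR9 and MyD88 fusions from primary screen; compound exposure lasted 48 hours before viability readout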
[14] = target: T3, Replicative DNA helicase DnaB (Mycobacterium tuberculosis, UniProt P9WMR3); assay: DnaB intein splicing inhibitors, dose response, biochemical, cell-free fluorescence (AID 449749); format: functional
T3 sequence (P9WMR3 whole entry): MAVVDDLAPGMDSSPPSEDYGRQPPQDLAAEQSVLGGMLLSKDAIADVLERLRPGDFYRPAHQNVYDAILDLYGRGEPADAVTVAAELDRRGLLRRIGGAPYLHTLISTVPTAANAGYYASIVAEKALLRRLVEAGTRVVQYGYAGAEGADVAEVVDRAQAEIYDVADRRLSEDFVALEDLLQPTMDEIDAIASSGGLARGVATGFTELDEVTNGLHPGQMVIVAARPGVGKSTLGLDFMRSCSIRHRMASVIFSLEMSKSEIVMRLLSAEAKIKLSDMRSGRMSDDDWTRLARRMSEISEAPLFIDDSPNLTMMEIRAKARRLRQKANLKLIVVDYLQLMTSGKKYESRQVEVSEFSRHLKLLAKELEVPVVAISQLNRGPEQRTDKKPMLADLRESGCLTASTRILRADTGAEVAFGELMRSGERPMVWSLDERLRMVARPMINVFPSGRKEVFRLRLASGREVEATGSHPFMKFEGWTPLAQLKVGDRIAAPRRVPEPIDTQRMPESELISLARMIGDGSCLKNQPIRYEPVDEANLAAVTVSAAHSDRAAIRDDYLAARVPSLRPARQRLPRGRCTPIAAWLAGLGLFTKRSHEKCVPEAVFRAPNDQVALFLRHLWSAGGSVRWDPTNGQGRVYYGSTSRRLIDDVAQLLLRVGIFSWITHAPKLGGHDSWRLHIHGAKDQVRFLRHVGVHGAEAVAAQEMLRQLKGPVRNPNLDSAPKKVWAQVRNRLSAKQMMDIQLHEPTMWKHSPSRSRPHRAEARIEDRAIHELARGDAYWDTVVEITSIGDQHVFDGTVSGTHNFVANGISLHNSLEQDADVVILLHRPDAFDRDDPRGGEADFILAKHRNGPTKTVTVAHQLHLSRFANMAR

Protein RecA = target: T4, Protein RecA (Mycobacterium tuberculosis, UniProt P9WHJ3); assay: Fluorescence Cell-Free Homogeneous Dose Retest to Identify Inhibitors of RecA-Intein Splicing Activity. [Related pubchem assays (depositor defined):AID2097, AID2223, AID489010, AID492950]; format: functional
T4 sequence (P9WHJ3 whole entry): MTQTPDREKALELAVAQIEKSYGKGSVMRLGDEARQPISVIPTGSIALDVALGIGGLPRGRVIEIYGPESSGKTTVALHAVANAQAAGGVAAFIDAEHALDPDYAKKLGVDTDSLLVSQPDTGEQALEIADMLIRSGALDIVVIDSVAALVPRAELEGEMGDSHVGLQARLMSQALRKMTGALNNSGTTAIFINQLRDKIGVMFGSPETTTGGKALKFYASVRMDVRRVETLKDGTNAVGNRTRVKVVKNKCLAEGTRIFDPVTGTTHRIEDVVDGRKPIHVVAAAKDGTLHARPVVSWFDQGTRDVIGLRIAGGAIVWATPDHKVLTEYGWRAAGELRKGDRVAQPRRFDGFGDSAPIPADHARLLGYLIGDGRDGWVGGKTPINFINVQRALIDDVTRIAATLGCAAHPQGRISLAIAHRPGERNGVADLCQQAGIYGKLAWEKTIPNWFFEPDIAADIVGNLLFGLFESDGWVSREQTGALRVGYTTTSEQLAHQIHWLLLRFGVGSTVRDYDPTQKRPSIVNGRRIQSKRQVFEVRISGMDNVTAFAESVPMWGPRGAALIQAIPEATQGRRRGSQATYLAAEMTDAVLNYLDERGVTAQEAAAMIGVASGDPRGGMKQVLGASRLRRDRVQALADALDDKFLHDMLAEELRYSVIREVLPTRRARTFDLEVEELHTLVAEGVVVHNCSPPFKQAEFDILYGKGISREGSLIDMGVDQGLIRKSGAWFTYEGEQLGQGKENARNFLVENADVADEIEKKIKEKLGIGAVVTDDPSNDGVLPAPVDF

Beta Lactamase = Beta Lactamase (Pseudomonas aeruginosa, UniProt Q932Y6); assay: beta-lactamase reporter inhibitor potency, dose response, artefact control for TLR9-MyD88 binding inhibitor project, BLA reporter cells, FRET fluorescence (AID 588341); format: cell-based;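 further: cell based assay in CHO-K1 cells stably expressing beta-lactamase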
Sequence of Beta Lactamase (Q932Y6 whole entry): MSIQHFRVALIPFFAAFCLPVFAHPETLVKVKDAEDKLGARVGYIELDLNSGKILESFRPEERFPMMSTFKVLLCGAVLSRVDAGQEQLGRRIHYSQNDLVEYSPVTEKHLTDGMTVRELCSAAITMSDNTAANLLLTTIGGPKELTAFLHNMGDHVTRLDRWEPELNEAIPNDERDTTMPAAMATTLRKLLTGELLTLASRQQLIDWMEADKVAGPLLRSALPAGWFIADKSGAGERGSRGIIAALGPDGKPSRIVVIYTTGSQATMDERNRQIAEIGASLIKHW

T1 sequence (P08659 whole entry): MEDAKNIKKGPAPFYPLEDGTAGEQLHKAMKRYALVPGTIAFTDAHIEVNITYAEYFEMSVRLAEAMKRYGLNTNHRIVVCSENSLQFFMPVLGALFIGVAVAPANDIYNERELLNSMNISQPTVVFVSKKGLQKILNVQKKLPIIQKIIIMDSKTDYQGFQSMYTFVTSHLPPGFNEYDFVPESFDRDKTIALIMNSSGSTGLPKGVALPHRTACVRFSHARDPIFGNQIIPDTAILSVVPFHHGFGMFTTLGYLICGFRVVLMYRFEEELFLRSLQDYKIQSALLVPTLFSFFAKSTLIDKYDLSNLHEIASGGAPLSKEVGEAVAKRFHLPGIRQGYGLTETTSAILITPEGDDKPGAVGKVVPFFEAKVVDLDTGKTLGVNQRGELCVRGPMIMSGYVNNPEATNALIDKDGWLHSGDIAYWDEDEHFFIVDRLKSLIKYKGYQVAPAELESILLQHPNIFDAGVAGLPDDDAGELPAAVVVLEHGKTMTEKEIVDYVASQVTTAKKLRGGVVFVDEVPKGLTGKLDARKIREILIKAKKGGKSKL
T2 sequence (O95977 whole entry): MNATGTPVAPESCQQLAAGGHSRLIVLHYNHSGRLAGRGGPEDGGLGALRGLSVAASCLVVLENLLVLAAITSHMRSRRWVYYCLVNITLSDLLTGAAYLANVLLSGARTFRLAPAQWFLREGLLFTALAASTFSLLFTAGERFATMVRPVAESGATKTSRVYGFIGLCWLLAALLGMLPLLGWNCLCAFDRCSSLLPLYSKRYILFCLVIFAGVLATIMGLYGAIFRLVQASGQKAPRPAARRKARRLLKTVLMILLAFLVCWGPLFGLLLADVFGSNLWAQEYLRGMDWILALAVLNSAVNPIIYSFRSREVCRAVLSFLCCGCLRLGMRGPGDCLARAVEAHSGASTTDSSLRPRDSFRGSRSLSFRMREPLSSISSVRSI
Sequence of Sphingosine 1-phosphate receptor 1 (P21453 whole entry): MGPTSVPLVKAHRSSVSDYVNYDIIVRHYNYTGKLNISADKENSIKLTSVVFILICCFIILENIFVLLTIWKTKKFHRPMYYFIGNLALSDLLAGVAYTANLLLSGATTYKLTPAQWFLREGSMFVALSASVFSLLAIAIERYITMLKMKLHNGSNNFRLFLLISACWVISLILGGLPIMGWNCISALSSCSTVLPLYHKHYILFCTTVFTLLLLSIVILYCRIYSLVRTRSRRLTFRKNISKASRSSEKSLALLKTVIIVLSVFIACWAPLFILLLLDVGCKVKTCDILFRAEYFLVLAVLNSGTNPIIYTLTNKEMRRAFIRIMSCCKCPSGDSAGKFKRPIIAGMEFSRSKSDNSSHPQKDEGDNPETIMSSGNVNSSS

For `CCOC(=O)CCS(=O)(=O)c1nc(-c2ccccc2)cc(C(F)(F)F)n1`, the EC50 [1] was < 0.2 µM (active), the EC50 (cells [2]) was > 350 µM (not active) and the EC50 [3] was 4.94 µM (active). The EC50 [4] was > 112 µM (not active), the EC50 [5] was 14.1 µM (active) and the EC50 [6] was 4.4 µM (active). For the same compound, the EC50 (cells [7]) was 43.4 µM (active), the EC50 (HT-1080) was 14 µM (active) and the IC50 [8] was 3.58 µM (not active). The IC50 [9] was 0.843 µM (active), the IC50 [10] was 15.5 µM (not active) and the CC50 [11] was 19.9 µM (active). The CC50 [12] was 16.2 µM (active), the IC50 (cells [13]) was 2.7 µM (active) and the IC50 (CHO) was 3.49 µM (active). The AC50 [14] was 4.45 µM (active), the EC50 (Protein RecA) was 3.23 µM (active) and the IC50 (Beta Lactamase) was 28.2 µM (inactive).
